In patent publication US11723890B2, “Methods of treatment using an mTORC1 modulator” (Navitor Pharmaceuticals, Inc., priority 2019, dated 2023):
Where two headings read alike, the source gives them in different places.

Assays:
Assay type in all cases: in vivo, human
[1] = Example 3: plasma pharmacokinetics of two sequential doses; conditions: for Tmax / AUC / AUC(0-t) / Cmax / half-life: male, human, 2400 mg
Description: Up to approximately 24 healthy male volunteers were randomly assigned (1:1) to double-blind treatment with either compound A 2400 mg or placebo. Each subject received one dose of either 2400 mg compound A or placebo on Day 1 and a second dose of the same treatment on Day 3.
The initial dose of double-blind treatment was administered between 7:00 AM and 10:00 AM on Day 1. The second (Day 3) dose was given 48 hours ±30 minutes following the first (Day 1) dose. Predose assessments were performed up to 120 minutes prior to dosing on Day 1 and Day 3, except for the predose dECG, which was performed within 30 minutes prior to dosing on both Day 1 and Day 3, the predose qEEG and ERP, which was performed within 60 minutes prior to dosing on Day 1 and Day 3, and the predose PK blood draw, which was performed within 15 minutes prior to dosing on Day 3.
(§1) Pharmacodynamics were assessed via qEEG and event-related potential (ERP). Frequent PK sampling was included in the study to evaluate the PK of two doses of compound A given approximately 48 hours apart. A PK/PD model was developed that measures qEEG and ERP changes as a function of plasma concentration of compound A as well as determines whether there are any PK/PD differences between Dose 1 and Dose 2 effects.
Subjects were required to refrain from eating or drinking from 2 hours prior to dose administration until two hours after dose administration.

[2] = tested on: qEEG and event-related potential (ERP); assay: Example 3: qEEG and event-related potential pharmacodynamics; conditions: healthy males
Excerpt: Pharmacodynamic Endpoints: The primary pharmacodynamic endpoint was the change from baseline in the difference between the compound A group and the placebo group on qEEG parameters, including:
Fractal and oscillatory EEG band amplitudes
Fractal and oscillatory EEG band intra- and interhemispheric coherences
The secondary pharmacodynamic endpoints were the changes from baseline in the difference between the compound A group and the placebo group in ERP parameters, including: • Mismatch negativity (MMN) amplitude and latency • P300a amplitude and latency • P300b amplitude and latency • N100 amplitude and latency • N200 amplitude and latency • P200 amplitude and latency • Auditory steady-state response (ASSR) peak-to-peak amplitude • ASSR event-related spectral perturbation (ERSP) • ASSR inter-trial phase coherence (ITPC) • Mean time scores of qEEG parallel factor analysis (PARAFAC) atoms endpoints
as §1

[3] = tested on: healthy male volunteers; assay: Example 3: safety and tolerability of two sequential doses in healthy male volunteers; conditions: healthy male subjects; two doses 2400 mg 48 hours apart
Description: Safety Endpoints: The safety endpoint was to assess the safety and tolerability of sequential doses of compound A vs. placebo in healthy male volunteers, as assessed by clinical laboratory parameters, physical, neurologic, and psychiatric examinations, vital signs, ECGs, EEGs, and adverse events.
This study was designed to evaluate the safety, tolerability, pharmacodynamics, and pharmacokinetics of two sequential doses of 2400 mg compound A (separated by 2 days), compared with placebo, in 24 healthy adult males (12 receiving compound A, 12 receiving placebo).

[4] = healthy males, 2400 mg oral, Day 1, N 11
[5] = healthy males, 2400 mg oral, second dose, Day 3, N 11
[6] = 2400 mg, not evident in placebo group

CC(C)(C[C@H](N)C(=O)O)C(F)F [Compound A, (S)-2-amino-5,5-difluoro-4,4-dimethylpentanoic acid]
accumulation between Day 1 and Day 3 ([1]; 2400 mg oral 48 hours apart): negligible accumulation | difference in geometric mean exposure (Cmax, AUC(0-24), AUC(0-48)) between Day 1 and Day 3 ([1]; 2400 mg oral on Days 1 and 3): ≤ 5% | time of peak concentration for the mean profile ([1]; 2400 mg oral, day 1, post-dose): 1 h | time of highest concentration for the mean profile ([1]; 2400 mg oral, day 3, post-dose): 0.5 h | mean plasma concentration versus time profiles on days 1 and 3 ([1]; FIG. 13): nearly superimposable | AUC(0-24), Max [1, 4]: 416,000 h*ng/mL | AUC(0-24), Min [1, 4]: 298,000 h*ng/mL | AUC(0-48), Max [1, 4]: 525,000 h*ng/mL | AUC(0-48), Min [1, 4]: 357,000 h*ng/mL | AUClast, Max [1, 4]: 481,000 h*ng/mL | AUClast, Min [1, 4]: 298,000 h*ng/mL | Cmax, Max [1, 4]: 57,700 ng/mL | Cmax, Min [1, 4]: 23,300 ng/mL | T1/2, Max [1, 4]: 15.2 h | T1/2, Min [1, 4]: 9.20 h | AUC(0-24), Max [1, 5]: 449,000 h*ng/mL | AUC(0-24), Min [1, 5]: 294,000 h*ng/mL | AUC(0-48), Max [1, 5]: 584,000 h*ng/mL | AUC(0-48), Min [1, 5]: 353,000 h*ng/mL | AUClast, Max [1, 5]: 632,000 h*ng/mL | AUClast, Min [1, 5]: 369,000 h*ng/mL | Cmax, Max [1, 5]: 52,300 ng/mL | Cmax, Min [1, 5]: 35,700 ng/mL | T1/2, Max [1, 5]: 21.1 h | T1/2, Min [1, 5]: 10.9 h | Tmax ([1]; oral, all subjects, both dosing days (Days 1 and 3), read-out: individual Tmax values): 0.5 to 1 h | AUC ([1]; po, healthy males, 2400 mg oral, Day 1, N 11, read-out: AUC(0-24), Geometric mean): 355 µg·h/mL | AUC ([1]; po, healthy males, 2400 mg oral, Day 1, N 11, read-out: AUC(0-24), Mean): 358 µg·h/mL | AUC ([1]; po, healthy males, 2400 mg oral, Day 1, N 11, read-out: AUC(0-24), Median): 366 µg·h/mL | AUC ([1]; po, healthy males, 2400 mg oral, Day 1, N 11, read-out: AUC(0-48), Geometric mean): 438 µg·h/mL | AUC ([1]; po, healthy males, 2400 mg oral, Day 1, N 11, read-out: AUC(0-48), Mean): 442 µg·h/mL | AUC ([1]; po, healthy males, 2400 mg oral, Day 1, N 11, read-out: AUC(0-48), Median): 453 µg·h/mL | AUC(0-t) ([1]; po, healthy males, 2400 mg oral, Day 1, N 11, read-out: AUClast, Geometric mean): 405 µg·h/mL | AUC(0-t) ([1]; po, healthy males, 2400 mg oral, Day 1, N 11, read-out: AUClast, Mean): 409 µg·h/mL | AUC(0-t) ([1]; po, healthy males, 2400 mg oral, Day 1, N 11, read-out: AUClast, Median): 422 µg·h/mL | Cmax ([1]; po, healthy males, 2400 mg oral, Day 1, N 11, read-out: Cmax, Geometric mean): 43900 ng/mL | Cmax ([1]; po, healthy males, 2400 mg oral, Day 1, N 11, read-out: Cmax, Mean): 45100 ng/mL | Cmax ([1]; po, healthy males, 2400 mg oral, Day 1, N 11, read-out: Cmax, Median): 47000 ng/mL | half-life ([1]; po, healthy males, 2400 mg oral, Day 1, N 11, read-out: T1/2, Geometric mean (converted)): 12.1 h | half-life ([1]; po, healthy males, 2400 mg oral, Day 1, N 11, read-out: T1/2, Mean (converted)): 12.2 h | half-life ([1]; po, healthy males, 2400 mg oral, Day 1, N 11, read-out: T1/2, Median (converted)): 12 h | Tmax ([1]; po, healthy males, 2400 mg oral, Day 1, N 11, read-out: Tmax, Median): 1 h | AUC ([1]; po, healthy males, 2400 mg oral, second dose, Day 3, N 11, read-out: AUC(0-24), Geometric mean): 350 µg·h/mL | AUC ([1]; po, healthy males, 2400 mg oral, second dose, Day 3, N 11, read-out: AUC(0-24), Mean): 353 µg·h/mL | AUC ([1]; po, healthy males, 2400 mg oral, second dose, Day 3, N 11, read-out: AUC(0-24), Median): 340 µg·h/mL | AUC ([1]; po, healthy males, 2400 mg oral, second dose, Day 3, N 11, read-out: AUC(0-48), Geometric mean): 430 µg·h/mL | AUC ([1]; po, healthy males, 2400 mg oral, second dose, Day 3, N 11, read-out: AUC(0-48), Mean): 436 µg·h/mL | AUC ([1]; po, healthy males, 2400 mg oral, second dose, Day 3, N 11, read-out: AUC(0-48), Median): 428 µg·h/mL | AUC(0-t) ([1]; po, healthy males, 2400 mg oral, second dose, Day 3, N 11, read-out: AUClast, Geometric mean): 455 µg·h/mL | AUC(0-t) ([1]; po, healthy males, 2400 mg oral, second dose, Day 3, N 11, read-out: AUClast, Mean): 462 µg·h/mL | AUC(0-t) ([1]; po, healthy males, 2400 mg oral, second dose, Day 3, N 11, read-out: AUClast, Median): 460 µg·h/mL | Cmax ([1]; po, healthy males, 2400 mg oral, second dose, Day 3, N 11, read-out: Cmax, Geometric mean): 45300 ng/mL | Cmax ([1]; po, healthy males, 2400 mg oral, second dose, Day 3, N 11, read-out: Cmax, Mean): 45600 ng/mL | Cmax ([1]; po, healthy males, 2400 mg oral, second dose, Day 3, N 11, read-out: Cmax, Median): 47400 ng/mL | half-life ([1]; po, healthy males, 2400 mg oral, second dose, Day 3, N 11, read-out: T1/2, Geometric mean (converted)): 15.3 h | half-life ([1]; po, healthy males, 2400 mg oral, second dose, Day 3, N 11, read-out: T1/2, Mean (converted)): 15.6 h | half-life ([1]; po, healthy males, 2400 mg oral, second dose, Day 3, N 11, read-out: T1/2, Median (converted)): 15.6 h | Tmax ([1]; po, healthy males, 2400 mg oral, second dose, Day 3, N 11, read-out: Tmax, Median): 0.5 h | time to EEG activation after the first and second doses ([2]; 2400 mg Day 1 and Day 3): ≤ 1 h | ASSR high-frequency (harmonic) resonances [2, 6]: increased | peak latency of N100, P200, P300A components in auditory oddball tasks [2, 6]: reduced | changes in low- and high-frequency EEG bands ([2]; 2400 mg, qEEG): dose-dependent decreases in low-frequency EEG bands (delta, theta) and increases in high-frequency EEG bands (gamma) | delta and theta band amplitudes ([2]; 2400 mg, qEEG): significantly decreased | high-frequency band amplitudes (higher beta and gamma bands) ([2]; 2400 mg, qEEG): increased | qEEG band coherences ([2]; 2400 mg, qEEG): increased coherence in alpha, beta, and gamma bands | theta-beta ratios ([2]; 2400 mg, qEEG): decreased | alpha band amplitudes ([2]; 2400 mg, qEEG, within 1 hour after dosing): decreased | neural activation on qEEG ([2]; single dose 2400 mg, versus placebo): rapid and significant neural activation | deaths, SAEs, discontinuations due to TEAEs, Grade 2 or 3 TEAEs [3]: no deaths or other SAEs, discontinuations due to TEAEs, or moderate (Grade 2) or severe (Grade 3) TEAEs | dissociative effects [3]: No dissociative effects were reported | incidence of TEAEs [3]: 8.3% | incidence of drug-related TEAEs [3]: 0% | proconvulsant activity on safety EEGs [3]: no evidence | safety and tolerability [3]: generally safe and well tolerated | severity of TEAEs [3]: mild (Grade 1)
